Measured values reported in the supplement of paper PMC10307832.

Experiments:
Test in all cases: relative viability (nuclei count vs DMSO), 5 days (fraction); higher = more cells survive
[1] = compound: CC[C@H](C)N1C=C(C2=C(C=C(C=C21)C3=CN=C(C=C3)N4CCNCC4)C(=O)NCC5=C(C=C(NC5=O)C)C)C [GSK126] + CS(=O)(=O)N1CCN(Cc2cc3nc(-c4cccc5[nH]ncc45)nc(N4CCOCC4)c3s2)CC1 [Pictilisib] (partner 1 µM)
Summary of the method: (§1)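 A single step with final 0.05% Triton X-100, 1% formaldehyde and 1 ug/ml Hoechst fixed the cells and stained nuclei 5 days after treatment. Lung cancer cell lines in 1536-well plates had been treated by pin tool the day after seeding with one drug alone or a fixed anchor-drug dose plus five library-drug doses (not always all listed) in √10 steps, and nuclei were counted on 4× images. Relative viability is the ratio of nuclei in treated wells to nuclei in vehicle wells, taken as the median of duplicate plates.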

[2] = compound: NS(=O)(=O)OC[C@@H]1C[C@@H](n2ccc3c(N[C@H]4CCc5ccccc54)ncnc32)C[C@@H]1O [MLN4924] + CC(=O)Nc1cccc(-n2c(=O)n(C3CC3)c(=O)c3c(Nc4ccc(I)cc4F)n(C)c(=O)c(C)c32)c1 [Trametinib] (partner 0.02 µM)
Summary of the method: as §1

[3] = compound: C1CC(C1)(C(=O)O)C(=O)O.[NH2-].[NH2-].[Pt+2] [Carboplatin] + O=C(c1cc(Cc2n[nH]c(=O)c3ccccc23)ccc1F)N1CCN(C(=O)C2CC2)CC1 [Olaparib] (partner 8 µM)
Summary of the method: as §1

[4] = compound: CC[C@H](C)N1C=C(C2=C(C=C(C=C21)C3=CN=C(C=C3)N4CCNCC4)C(=O)NCC5=C(C=C(NC5=O)C)C)C [GSK126] + Nc1nc2[nH]cc(CCc3ccc(C(=O)N[C@@H](CCC(=O)O)C(=O)O)cc3)c2c(=O)[nH]1 [Pemetrexed] (partner 0.2 µM)
Summary of the method: as §1

Cell Line	relative viability ([1]; first compound 0.08 µM)	relative viability ([1]; first compound 0.253 µM)	relative viability ([1]; first compound 0.8 µM)	relative viability ([1]; first compound 2.53 µM)	relative viability ([1]; first compound 8 µM)	relative viability ([2]; first compound 0.04 µM)	relative viability ([2]; first compound 0.1265 µM)	relative viability ([2]; first compound 0.4 µM)	relative viability ([2]; first compound 1.265 µM)	relative viability ([2]; first compound 4 µM)	relative viability ([3]; first compound 0.08 µM)	relative viability ([3]; first compound 0.253 µM)	relative viability ([3]; first compound 0.8 µM)	relative viability ([3]; first compound 2.53 µM)	relative viability ([3]; first compound 8 µM)	relative viability ([4]; first compound 0.08 µM)	relative viability ([4]; first compound 0.253 µM)	relative viability ([4]; first compound 0.8 µM)	relative viability ([4]; first compound 2.53 µM)	relative viability ([4]; first compound 8 µM)
NCI-H1437	0.44	0.504	0.406	0.455	0.405	0.547	0.483	0.502	0.226	0.218	0.646	0.675	0.578	0.623	0.594	0.298	0.325	0.306	0.305	0.353
EMC-BAC-2	0.516	0.549	0.496	0.53	0.592	0.762	0.589	0.466	0.324	0.35	0.483	0.484	0.447	0.461	0.385	0.421	0.46	0.46	0.419	0.376
NCI-H520	0.265	0.261	0.271	0.256	0.281	0.527	0.396	0.346	0.149	0.168	0.408	0.253	0.328	0.313	0.287	0.781	0.792	0.743	0.705	0.733
NCI-H1993	0.841	0.795	0.828	0.902	0.782	0.63	0.425	0.388	0.415	0.356	0.854	1.22	0.993	0.923	0.706	0.583	0.555	0.628	0.586	0.687
HCC-827	1.19	1.25	1.01	0.953	1.12	0.738	0.601	0.526	0.193	0.156	0.61	0.651	0.639	0.593	0.564	0.264	0.285	0.249	0.27	0.287
NCI-H2087	1.08	0.745	0.815	0.894	0.844	0.23	0.217	0.291	0.129	0.0965	0.69	0.674	0.578	0.553	0.328	0.611	0.666	0.685	0.645	0.648
HARA	0.394	0.421	0.48	0.411	0.37	0.671	0.79	0.357	0.114	0.111	0.881	0.794	0.806	0.775	0.692	0.247	0.258	0.231	0.215	0.215
NCI-H2126	0.497	0.531	0.523	0.496	0.502	0.576	0.563	0.484	0.329	0.243	0.936	0.959	0.903	0.915	0.763	0.71	0.725	0.702	0.686	0.645
LCLC-103H	0.712	0.555	0.683	0.626	0.658	0.697	0.651	0.513	0.331	0.307	0.754	0.783	0.777	0.74	0.754	0.397	0.499	0.431	0.469	0.538
SK-LU-1	0.657	0.699	0.587	0.667	0.694	0.556	0.652	0.347	0.269	0.234	0.517	0.483	0.387	0.425	0.356	1.06	0.938	0.956	0.953	1.06
EKVX	0.417	0.474	0.408	0.518	0.353	0.314	0.349	0.319	0.244	0.193	0.856	0.81	0.872	0.734	0.671	0.403	0.373	0.413	0.374	0.31
HCC-366	0.132	0.138	0.13	0.0968	0.126	0.369	0.376	0.514	0.305	0.0404	0.387	0.363	0.364	0.288	0.208	0.179	0.161	0.14	0.149	0.158
NCI-H1650	0.568	0.596	0.566	0.794	0.556	0.597	0.32	0.232	0.131	0.156	0.85	0.815	0.752	0.492	0.471	0.393	0.437	0.39	0.302	0.344
